The target of this assay is T1, IKKε (Homo sapiens, UniProt Q14164).
T1 construct: His-tag (in-house Sf9 preparation) or GST-tag (purchased Invitrogen preparation); these are alternatives, not both on one protein; host or cells: Sf9 cells
T1 sequence (Q14164 1-716): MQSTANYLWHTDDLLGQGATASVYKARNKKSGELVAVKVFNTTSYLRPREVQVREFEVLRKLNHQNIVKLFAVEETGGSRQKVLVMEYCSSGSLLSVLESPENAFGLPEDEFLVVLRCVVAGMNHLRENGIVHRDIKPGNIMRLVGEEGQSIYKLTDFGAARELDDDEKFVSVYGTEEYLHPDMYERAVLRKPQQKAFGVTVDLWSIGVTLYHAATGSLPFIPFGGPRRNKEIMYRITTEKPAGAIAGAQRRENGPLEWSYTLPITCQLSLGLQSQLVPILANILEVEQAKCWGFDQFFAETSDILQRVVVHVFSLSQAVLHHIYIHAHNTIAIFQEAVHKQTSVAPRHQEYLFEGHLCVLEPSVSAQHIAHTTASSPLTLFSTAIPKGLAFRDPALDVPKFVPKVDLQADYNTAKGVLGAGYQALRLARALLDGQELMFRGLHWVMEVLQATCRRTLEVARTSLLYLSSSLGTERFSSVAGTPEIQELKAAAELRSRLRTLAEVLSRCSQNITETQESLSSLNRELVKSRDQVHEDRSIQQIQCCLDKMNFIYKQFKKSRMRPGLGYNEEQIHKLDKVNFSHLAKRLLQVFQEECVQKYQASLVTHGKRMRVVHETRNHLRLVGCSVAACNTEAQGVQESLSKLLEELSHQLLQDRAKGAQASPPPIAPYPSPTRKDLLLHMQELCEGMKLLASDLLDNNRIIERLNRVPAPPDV
Nature of the assay: In-vitro IKKε kinase assay (radiolabelled ATP, filterplate). Format: biochemical. As to the method: IKKε enzyme was produced as a His-tag fusion in Sf9 cells or purchased as a GST-tag fusion (Invitrogen, Carlsbad, Calif.). TBK1 enzyme was produced as a His-tag fusion in Sf9 cells. Kinase reactions were carried out in reaction buffer using myelin basic protein (Millipore, Ballerica, Mass.), casein or dephosphorylated casein (Sigma, St. Louis, Mo.) as substrate at an ATP concentration equal to twice the Km,ATP value for each enzyme, corresponding to 32 μM ATP for IKKε and 60 μM ATP for TBK1. Radiolabelled [γ^33]ATP (PerkinElmer, Waltham, Mass.) in the amount of […] (IKKe, “normal”) or 0.7 μCi (IKKε, “sensitized”) or 1.25 μCi (TBK1) was added to each assay. Final enzyme concentrations were 0.1 or 0.015 μg/ml (IKKε) and 0.1 or 0.02 μg/ml (TBK1) for the “normal” and “sensitized” assay, respectively, and “sensitized” assays were conducted using only dephosphorylated casein as substrate. Test compounds (or DMSO solvent as a control) were added prior to initiation of the reactions. Reactions were terminated after 30-45 minutes by adding 3% phosphoric acid. Terminated reactions were transferred to P-81 cellulose phosphate filterplates (Whatman, Inc., Piscataway, N.J.) and washed with 1% phosphoric acid on a vacuum apparatus. After air drying, scintillant (PerkinElmer, Waltham, Mass.) was added and the plates were read on a PerkinElmer TopCount NXT instrument. Counts were normalized to DMSO controls after background subtraction.

Setting [1] is: in-vitro IKKε kinase inhibition assays, given as 0.005 μM (5 nM), read-out: IKKε kinase inhibitory activity (IC50 value).
Setting [2] is: "sensitized" assay, read-out: IC50, inhibition of the kinase activity of IKKε.

Like-named read-outs stand apart in the source and are kept apart here.

Regarding `N#Cc1cc(-c2ccnc(Nc3ccc(N4CC(O)C4)nc3)n2)ccc1OC1CCOCC1` [Example Compound 46, 5-(2-{[6-(3-Hydroxyazetidin-1-yl)pyridin-3-yl]amino}pyrimidin-4-yl)-2-(tetrahydro-2H-pyran-4-yloxy)benzonitrile], the half-maximal inhibitory concentration (IC50) under setting [1] is less than 5 nM.
`CN(Cc1ccc(Nc2nccc(-c3ccc(OC4CCOCC4)c(C#N)c3)n2)cn1)S(C)(=O)=O` [Example Compound 55, N-{[5-({4-[3-Cyano-4-(tetrahydro-2H-pyran-4-yloxy)phenyl]pyrimidin-2-yl}amino)pyridin-2-yl]methyl}-N-methylmethanesulfonamide]: under setting [1], the IC50 is less than 5 nM.
For the compound `CN(Cc1ccc(Nc2nccc(-c3ccc(OC4CCOCC4)c(C#N)c3)n2)cn1)C(=O)C(C)(C)O` [Example Compound 56, N-{[5-({4-[3-Cyano-4-(tetrahydro-2H-pyran-4-yloxy)phenyl]pyrimidin-2-yl}amino)pyridin-2-yl]methyl}-2-hydroxy-N,2-dimethylpropanamide], the concentration for half-maximal inhibition (IC50) under setting [1] was less than 5 nM.
The same measure, in the same setting: with `CC(O)c1ccc(Nc2nccc(-c3ccc(OC4CCOCC4)c(C#N)c3)n2)cn1` (stereo not drawn) [Example Compound 61, 5-(2-{[6-(1-Hydroxyethyl)pyridin-3-yl]amino}pyrimidin-4-yl)-2-(tetrahydro-2H-pyran-4-yloxy)benzonitrile] the figure was less than 5 nM; with `CC(=O)c1ccc(Nc2nccc(-c3ccc(OC4CCOCC4)c(C#N)c3)n2)cn1` [Example Compound 62, 5-{2-[(6-Acetylpyridin-3-yl)amino]pyrimidin-4-yl}-2-(tetrahydro-2H-pyran-4-yloxy)benzonitrile], less than 5 nM; with `N#Cc1cc(-c2ccnc(Nc3ccnc(CO)c3)n2)ccc1OC1CCOCC1` [Example Compound 66, 5-(2-{[2-(Hydroxymethyl)pyridin-4-yl]amino}pyrimidin-4-yl)-2-(tetrahydro-2H-pyran-4-yloxy)benzonitrile], less than 5 nM.
As to `N#Cc1cc(-c2ccnc(Nc3ccc(CNC(=O)N4CCOCC4)nc3)n2)ccc1OC1CCOCC1` [Example Compound 67, N-{[5-({4-[3-Cyano-4-(tetrahydro-2H-pyran-4-yloxy)phenyl]pyrimidin-2-yl}amino)pyridin-2-yl]methyl}morpholine-4-carboxamide], the IC50 under setting [1] was less than 5 nM.
On the same count and under the same terms, with `CC(=O)NCc1ccc(Nc2nccc(-c3ccc(OC4CCOCC4)c(C#N)c3)n2)cn1` [Example Compound 68, N-{[5-({4-[3-Cyano-4-(tetrahydro-2H-pyran-4-yloxy)phenyl]pyrimidin-2-yl}amino)pyridin-2-yl]methyl}acetamide] the figure was less than 5 nM; with `COC1CN(Cc2cc(Nc3nccc(-c4ccc(OC5CCOCC5)c(C#N)c4)n3)ccn2)C1` [Example Compound 69, 5-[2-({2-[(3-Methoxyazetidin-1-yl)methyl]pyridin-4-yl}amino)pyrimidin-4-yl]-2-(tetrahydro-2H-pyran-4-yloxy)benzonitrile], less than 5 nM.
Take `CN(C)c1ccc(-c2ccc(Nc3nccc(-c4ccc(OC5CCOCC5)c(C#N)c4)n3)cn2)cn1` [Example Compound 81, 5-(2-{[6′-(Dimethylamino)-2,3′-bipyridin-5-yl]amino}pyrimidin-4-yl)-2-(tetrahydro-2H-pyran-4-yloxy)benzonitrile]: the IC50 is, setting by setting: under setting [2], less than 5 nM; under setting [1], less than 5 nM.
Regarding `N#Cc1cc(-c2ccnc(Nc3cncc(N4CCOCC4)n3)n2)ccc1OC1CCOCC1` [Example Compound 89, 5-(2-{[6-(Morpholin-4-yl)pyrazin-2-yl]amino}pyrimidin-4-yl)-2-(tetrahydro-2H-pyran-4-yloxy)benzonitrile], the IC50 by setting is: under setting [2], less than 5 nM; under setting [1], less than 5 nM.
As for `N#Cc1cc(-c2ccnc(Nc3ccc(C(=O)N4CCN(CCO)CC4)s3)n2)ccc1OC1CCOCC1` [Example Compound 95, 5-{2-[(5-{[4-(2-Hydroxyethyl)piperazin-1-yl]carbonyl}thiophen-2-yl)amino]pyrimidin-4-yl}-2-(tetrahydro-2H-pyran-4-yloxy)benzonitrile], the 50% inhibitory concentration (IC50) by setting is: under setting [2], less than 5 nM; under setting [1], less than 5 nM.
`COC1CN(C(=O)c2csc(Nc3nccc(-c4ccc(OC5CCOCC5)c(C#N)c4)n3)n2)C1` [Example Compound 104, 5-[2-({4-[(3-Methoxyazetidin-1-yl)carbonyl]-1,3-thiazol-2-yl}amino)pyrimidin-4-yl]-2-(tetrahydro-2H-pyran-4-yloxy)benzonitrile]: the half-maximal inhibitory concentration (IC50) by setting is: under setting [2], less than 5 nM; under setting [1], less than 5 nM.
Turning to `COc1cc(Nc2nccc(-c3ccc(O[C@@H]4CCN(C(=O)CO)C4)c(C#N)c3)n2)ccn1` [Example Compound 121, 2-{[(3R)-1-(Hydroxyacetyl)pyrrolidin-3-yl]oxy}-5-{2-[(2-methoxypyridin-4-yl)amino]pyrimidin-4-yl}benzonitrile], the IC50 under setting [1] is less than 5 nM.
Regarding `C[C@H](O)C(=O)N1CCC(Oc2ccc(-c3ccnc(Nc4ccc(N5CCOCC5)nc4)n3)cc2C#N)CC1` [Example Compound 127, 2-({1-[(2S)-2-Hydroxypropanoyl]piperidin-4-yl}oxy)-5-(2-{[6-(morpholin-4-yl)pyridin-3-yl]amino}pyrimidin-4-yl)benzonitrile], the half-inhibitory concentration (IC50) was less than 5 nM under setting [2] and less than 5 nM under setting [1].
Take `COC1CN(c2cc(Nc3nccc(-c4ccc(NC(=O)C5CC5)c(C#N)c4)n3)ccn2)C1` [Example Compound 142, N-[2-Cyano-4-(2-{[2-(3-methoxyazetidin-1-yl)pyridin-4-yl]amino}pyrimidin-4-yl)phenyl]cyclopropanecarboxamide]: the concentration for half-maximal inhibition (IC50) by setting is: under setting [2], less than 5 nM; under setting [1], less than 5 nM.
As for `Cc1ccc(Nc2nccc(-c3ccc(NC(=O)C4CC4)c(C#N)c3)n2)cn1` [Example Compound 149, N-(2-Cyano-4-{2-[(6-methylpyridin-3-yl)amino]pyrimidin-4-yl}phenyl)cyclopropanecarboxamide], the IC50 by setting is: under setting [2], less than 5 nM; under setting [1], less than 5 nM.
As for `COCCNc1ncc(-c2ccc(Nc3nccc(-c4ccc(OC5CCOCC5)c(C#N)c4)n3)cn2)cn1` [Example Compound 187, 5-{2-[(6-{2-[(2-Methoxyethyl)amino]pyrimidin-5-yl}pyridin-3-yl)amino]pyrimidin-4-yl}-2-(tetrahydro-2H-pyran-4-yloxy)benzonitrile], the IC50 under setting [2] is less than 5 nM.
As for `N#Cc1cc(-c2ccnc(Nc3ccc(-c4cn[nH]c4)nc3)n2)ccc1OC1CCOCC1` [Example Compound 188, 5-(2-{[6-(1H-Pyrazol-4-yl)pyridin-3-yl]amino}pyrimidin-4-yl)-2-(tetrahydro-2H-pyran-4-yloxy)benzonitrile], the IC50 under setting [2] is less than 5 nM.
As for `Cn1cc(-c2ccc(Nc3nccc(-c4ccc(OC5CCOCC5)c(C#N)c4)n3)cn2)cn1` [Example Compound 189, 5-(2-{[6-(1-Methyl-1H-pyrazol-4-yl)pyridin-3-yl]amino}pyrimidin-4-yl)-2-(tetrahydro-2H-pyran-4-yloxy)benzonitrile], under setting [2], the IC50 was less than 5 nM.
Same read-out and setting: with `N#Cc1cc(-c2ccnc(Nc3ccc(/C=C/CN4CCOCC4)nc3)n2)ccc1OC1CCOCC1` [Example Compound 190, 5-[2-({6-[(1E)-3-(Morpholin-4-yl)prop-1-en-1-yl]pyridin-3-yl}amino)pyrimidin-4-yl]-2-(tetrahydro-2H-pyran-4-yloxy)benzonitrile] the figure was less than 5 nM; with `N#Cc1cc(-c2ccnc(Nc3ccnc(N4CCC[C@@H]4CO)c3)n2)ccc1OC1CCOCC1` [Example Compound 194, 5-[2-({2-[(2R)-2-(Hydroxymethyl)pyrrolidin-1-yl]pyridin-4-yl}amino)pyrimidin-4-yl]-2-(tetrahydro-2H-pyran-4-yloxy)benzonitrile], less than 5 nM.
The same measure, in the same setting: next, `CN(Cc1ccc(Nc2nccc(-c3ccc(OC4CCOCC4)c(C#N)c3)n2)cn1)C(=O)CO` [Example Compound 195, N-{[5-({4-[3-Cyano-4-(tetrahydro-2H-pyran-4-yloxy)phenyl]pyrimidin-2-yl}amino)pyridin-2-yl]methyl}-2-hydroxy-N-methylacetamide]: less than 5 nM.
